The source made the active and inactive calls. The calls are words filed in the database; no cut-off is given here.
Experiments:
Rec1 [1] = assay: Cytotoxicity against human REC1 cells measured after 72 hrs by MTT assay; type: functional, cell-based; conditions: Rec1, 72 h
Rec1 [2] = assay: Cytotoxicity against human REC1 cells at 30 uM assessed as cell proliferation rate measured after 72 hrs by MTT assay relative to control; type: functional
[3] = Cytotoxicity against human TC71 cells at 30 uM assessed as cell proliferation rate measured after 72 hrs by MTT assay relative to control; type: functional; conditions: TC-71
[4] = target: Aurora kinase A (Homo sapiens) (UniProt O14965); assay: Modulation in AURA protein in human SK-N-MC cell at 1 uM measured after 30 min by Western blot analysis; type: tissue-based
Aurora kinase A (Homo sapiens), sequence (O14965 whole entry): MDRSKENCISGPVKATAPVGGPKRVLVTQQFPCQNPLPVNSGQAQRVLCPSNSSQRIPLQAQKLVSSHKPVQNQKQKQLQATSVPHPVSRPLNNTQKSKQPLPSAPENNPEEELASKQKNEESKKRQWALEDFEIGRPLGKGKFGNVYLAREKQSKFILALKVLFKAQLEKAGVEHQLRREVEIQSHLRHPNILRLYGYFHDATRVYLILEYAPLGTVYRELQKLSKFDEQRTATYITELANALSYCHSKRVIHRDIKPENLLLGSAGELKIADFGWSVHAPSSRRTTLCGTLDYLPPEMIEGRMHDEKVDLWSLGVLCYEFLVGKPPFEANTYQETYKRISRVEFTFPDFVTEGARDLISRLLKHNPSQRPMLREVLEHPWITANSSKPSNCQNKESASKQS

[5] = target: 3-phosphoinositide-dependent protein kinase 1 (Homo sapiens) (UniProt O15530); assay: Modulation in PDK-1 phosphorylation in human SK-N-MC cell at 1 uM measured after 30 min by Western blot analysis
3-phosphoinositide-dependent protein kinase 1 (Homo sapiens), sequence (O15530 whole entry, looked up): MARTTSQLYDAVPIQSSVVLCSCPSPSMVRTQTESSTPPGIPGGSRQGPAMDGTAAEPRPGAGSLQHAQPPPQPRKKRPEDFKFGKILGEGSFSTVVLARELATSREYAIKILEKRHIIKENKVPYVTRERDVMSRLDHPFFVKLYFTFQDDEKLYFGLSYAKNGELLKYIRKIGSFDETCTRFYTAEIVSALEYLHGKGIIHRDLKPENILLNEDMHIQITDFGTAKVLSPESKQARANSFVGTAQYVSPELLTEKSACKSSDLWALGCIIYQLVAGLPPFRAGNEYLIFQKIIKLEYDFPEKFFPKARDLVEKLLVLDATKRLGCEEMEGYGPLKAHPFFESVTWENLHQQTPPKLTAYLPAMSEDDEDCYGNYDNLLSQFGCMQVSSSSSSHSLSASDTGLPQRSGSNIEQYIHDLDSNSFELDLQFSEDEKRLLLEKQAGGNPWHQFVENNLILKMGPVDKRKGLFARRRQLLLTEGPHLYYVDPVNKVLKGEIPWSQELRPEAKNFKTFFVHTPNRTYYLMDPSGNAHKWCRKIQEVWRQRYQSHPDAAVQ

Activity [4]: inactive
Activity [5]: inactive
Structure (SMILES): O=C1Nc2ccc(NC(=O)[C@H](NC(=O)c3cccn(Cc4ccc(F)c(F)c4)c3=O)c3ccccc3)cc2/C1=C/c1cnc[nH]1 (stereo in doubt)
IC50 (Rec1 [1]): 11 µM
Emax at 30 µM (Rec1 [2]): 55%
Emax at 30 µM [3]: 60%

From ChEMBL document CHEMBL5036349, “Development of potent dual PDK1/AurA kinase inhibitors for cancer therapy: Lead-optimization, structural insights, and ADME-Tox profile” (Eur J Med Chem, 2021)
